# Experimental data from patent US11225505B2, “Antimicrobial polymyxin derivative compounds” (MONASH UNIVERSITY, priority 2015, dated 2022).
# Where a SMILES comes first, the peptide text is derived from it. Bridges are numbered along the chain shown (N, C = ends). [ ]: non-standard residue; d: D form. The star is where a group is joined. X1 = O=C(c1ncc(Cl)cc1Cl)*; Dab = NCC[C@H](N)C(=O)O; Abu = CC[C@H](N)C(=O)O; Dap = NC[C@H](N)C(=O)O
# Columns and labels:
# [1] = system: Acinetobacter baumannii FADDI-AB034; format: cell-based; details: FADDI-AB034
# In short: (§1)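 In cation-adjusted Mueller-Hinton broth, each lipopeptide (TFA salt) was titrated against the bacteria by microdilution and the minimum inhibitory concentration recorded per CLSI M100-S24; polymyxin B sulphate ran in parallel.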
# [2] = system: Enterobacter cloacae FADDI-EC003; format: cell-based; details: FADDI-EC003
# In short: as §1
# [3] = system: Klebsiella pneumoniae FADDI-KP022; format: cell-based; details: FADDI-KP022
# In short: as §1
# [4] = system: Klebsiella pneumoniae FADDI-KP032; format: cell-based; details: FADDI-KP032
# In short: as §1
# [5] = system: Pseudomonas aeruginosa FADDI-PA038; format: cell-based; details: FADDI-PA038
# In short: as §1
# mouse kidney = details: in vivo, 180 mg/kg
# Source text: Lesions were rated as follows: mild acute tubular damage with tubular dilation, prominent nuclei and a few pale tubular casts (Grade 1); severe acute tubular damage with necrosis of tubular epithelial cells and numerous tubular casts (Grade 2); acute cortical necrosis/infarction of tubules and glomeruli with or without papillary necrosis (Grade 3). The grades were given the following scores: grade 1=1, grade 2=4, and grade 3=10. The percentage of area of the kidney slice showing histological damage was scored as follows: <1%=0, 1 to <5%=1, 5 to <10%=2, 10 to <20%=3, 20 to <30%=4, 30 to <40%=5, and >40%=6. The overall kidney histological score was calculated as the product of the percentage score and grade score. These scores were then expressed as a semiquantitative score (Kidney Histological Score) on a scale of 0 to +5 for renal histological changes. […]
# Lung infection was produced as follows. […] Bacterial burdens in lungs were determined at 2 h after inoculation (untreated controls) and 24 h later (untreated controls and compound-treated mice). […] The bacterial colonies on the agar plate were counted and the log10 CFU/lung in each mouse was calculated (FIG. 1).
# The right kidney from each of the treated animals was removed and assessed for histological damage as described for Example 3. […]
# mice = test: Acute toxicity observed in the mouse lung infection study; format: in vivo; details: up to 180 mg/kg total dose (four times the polymyxin B dose)
# Protocol: Lung infection was produced as follows. Mice (n=4) were anaesthetised by inhalation of 2% to 5% isoflurane in oxygen and rested in the supine position against a restraining board which was angled at 60-70° from the horizontal. Each mouse was inoculated with 25 μL of bacterial suspension in saline (˜10^6 bacterial cells in early logarithmic growth phase) sprayed directly into the trachea above the carina using a MicroSprayer® Aerosolizer (model IA-1C; Penn-Century, Philadelphia, Pa., USA). After discharge of the bacterial aerosol, mice were held upright on the restraining board for 2 min and then placed on a warm pad for recovery from anaesthesia. Treatment with polymyxin B and Compound 1, 3, 6 and 18 (intraperitoneal injection of dose-fractionated regimens across the daily dose) was initiated 2 h following inoculation. […] This was the highest dose of polymyxin B that could be safely administered without adverse effects, i.e. acute toxicity. Bacterial burdens in lungs were determined at 2 h after inoculation (untreated controls) and 24 h later (untreated controls and compound-treated mice). Animals were euthanised at 24 h by inhalation of overdose isoflurane. The skin on the chest and fore-paws of each animal was thoroughly cleansed with 70% ethanol and Betadine®. […] The bacterial colonies on the agar plate were counted and the log10 CFU/lung in each mouse was calculated (FIG. 1). […]
compound,measurement,setting,value
CC[C@@H]1NC(=O)[C@@H](CC(C)C)NC(=O)[C@H](CCN)NC(=O)[C@@H](NC(=O)[C@H](CN)NC(=O)[C@@H](NC(=O)[C@H](CCN)NC(=O)c2ncc(Cl)cc2Cl)[C@@H](C)O)CCNC(=O)[C@H]([C@@H](C)O)NC(=O)[C@H](CCN)NC(=O)[C@H](CCN)NC1=O [Compound 1] (X1-[Dab]T[Dap][Dab][Dab][dL][Abu][Dab][Dab]T; lactam 4-C),Minimum inhibitory concentration,[1],2 µg/mL
same,Minimum inhibitory concentration,[2],2 µg/mL
same,Minimum inhibitory concentration,[3],<0.125 µg/mL
same,Minimum inhibitory concentration,[4],0.5 µg/mL
same,Minimum inhibitory concentration,[5],1 µg/mL
same,histological damage to the kidneys (in words),mouse kidney,no histological damage
same,acute toxicity,mice,without any observable acute toxicity
